Measurements reported in patent publication US4051315A, “6"-Deoxykanamycin B and 6"-deoxytobramycin” (priority 1975, dated 1977).
≈ marks a conversion by molar mass, not a printed value. Like-named read-outs stand apart in the source and are kept apart here.

Experiments:
Type in all cases: cell-based
S. marcescens A20019 = assay: two-fold agar dilution MIC, Sm-1; conditions: Serratia marcescens
K. pneumoniae D11 = assay: two-fold agar dilution MIC, Kp-1; conditions: Klebsiella pneumoniae
[1] = test system: P. aeruginosa A20896 GAT-3; assay: two-fold agar dilution MIC, Pa-24
P. mirabilis A9554 CL-R = assay: two-fold agar dilution MIC, Pm-1
P. aeruginosa GN-4925 = assay: two-fold agar dilution MIC, Pa-45; conditions: Pseudomonas aeruginosa
[2] = test system: P. aeruginosa #130 GAT-1, NPT; assay: two-fold agar dilution MIC, Pa-16
[3] = test system: S. marcescens A21247 NPT-1, GAS; assay: two-fold agar dilution MIC, Sm-16; conditions: Serratia marcescens
B. subtilis PCT-219 = assay: two-fold agar dilution MIC, Bs-1; conditions: Bacillus subtilis
P. aeruginosa A9930 = assay: two-fold agar dilution MIC, Pa-3; conditions: Pseudomonas aeruginosa
S. aureus A20239 NPT-1,2 = assay: two-fold agar dilution MIC, Sa-10; conditions: Run 2; Sa-10
[4] = test system: S. aureus D137 PC, TC, EM-R; assay: two-fold agar dilution MIC, Sa-9
P. stuartii A20894 GAT-2 = assay: two-fold agar dilution MIC, Ps-2
E. coli A20107 NPT-2 = assay: two-fold agar dilution MIC, Ec-49; conditions: Escherichia coli
E. cloacae A21006 NPT-2 = assay: two-fold agar dilution MIC, E1-12
[5] = test system: E. coli JR66/W677 NPT-2, GAS; assay: two-fold agar dilution MIC, Ec-53
P. vulgaris A9436 = assay: two-fold agar dilution MIC, Pv-1
P. aeruginosa GN-315 KAT = assay: two-fold agar dilution MIC, Pa-27
E. coli NR79/W677 KAT = assay: two-fold agar dilution MIC, Ec-9; conditions: Escherichia coli, NR79/W677KAT
S. aureus Smith = assay: two-fold agar dilution MIC, Sa-2; conditions: Staphylococcus aureus
[6] = test system: P. aeruginosa A20601 GAT-1; assay: two-fold agar dilution MIC, Pa-21; conditions: Pseudomonas aeruginosa
E. coli JR88 CAT-1 = assay: two-fold agar dilution MIC, Ec-62
E. coli NIHJ = assay: two-fold agar dilution MIC, Ec-1
E. coli A20732 GAS = assay: two-fold agar dilution MIC, Ec-72; conditions: Escherichia coli, A20732GAS
[7] = test system: K. pneumoniae 22-3038 NPT-2, GAS; assay: two-fold agar dilution MIC, Kp-8
E. coli ML1630 NPT-1 = assay: two-fold agar dilution MIC, Ec-5; conditions: Escherichia coli
[8] = test system: P. aeruginosa A20653 NPT-1,2; assay: two-fold agar dilution MIC, Pa-12; conditions: Pseudomonas aeruginosa
E. coli JR35/C600 NPT-1 = assay: two-fold agar dilution MIC, Ec-10
[9] = test system: Pseudomonas sp. A20621 KAT, NPT-1,2; assay: two-fold agar dilution MIC, Px-10
E. coli P01495 CP.TC-R = assay: two-fold agar dilution MIC, Ec-2; conditions: Escherichia coli, P01495CP.TCR
S. aureus D133 SH, Sth-R = assay: two-fold agar dilution MIC, Sa-4
E. coli R5 KAT = assay: two-fold agar dilution MIC, Ec-55
E. cloacae A20364 NPT-1 = assay: two-fold agar dilution MIC, E1-2; conditions: Enterobacter cloacae
[10] = Staphylococcus aureus, Run 1, read-out: MIC

Which results are given for NCC1OC(OC2C(N)CC(N)C(OC3OC(CO)C(O)C(N)C3O)C2O)C(N)CC1O (stereo not drawn) [tobramycin, 3'-deoxykanamycin B]?
MIC (S. marcescens A20019; A20019, Run 1, read-out: MIC): 6.3 µg/mL (≈ 13.5 µM); MIC (S. marcescens A20019; A20019, Run 2): 12.5 µg/mL (≈ 26.7 µM); MIC (K. pneumoniae D11; D11, Run 1): 0.4 µg/mL (≈ 0.856 µM); MIC (K. pneumoniae D11; D11, Run 2): 0.8 µg/mL (≈ 1.71 µM); MIC ([1]; Pseudomonas aeruginosa, A20896GAT3, Run 1, read-out: MIC): > 100 µg/mL; MIC ([1]; Run 2): > 100 µg/mL; MIC (P. mirabilis A9554 CL-R; Proteus mirabilis, A9554CLR, Run 1, read-out: MIC): 0.8 µg/mL (≈ 1.71 µM); MIC (P. mirabilis A9554 CL-R; Run 2): 0.8 µg/mL (≈ 1.71 µM); MIC (P. aeruginosa GN-4925; GN4925, Run 1): 100 µg/mL (≈ 214 µM); MIC (P. aeruginosa GN-4925; GN4925, Run 2): 50 µg/mL (≈ 107 µM); MIC ([2]; Pseudomonas aeruginosa, Run 1, read-out: MIC): 3.1 µg/mL (≈ 6.63 µM); MIC ([2]; Run 2): 3.1 µg/mL (≈ 6.63 µM); MIC ([3]; Run 1): 50 µg/mL (≈ 107 µM); MIC ([3]; Run 2): 50 µg/mL (≈ 107 µM); MIC (B. subtilis PCT-219; PCT219, Run 1): 0.2 µg/mL (≈ 0.428 µM); MIC (B. subtilis PCT-219; PCT219, Run 2): < 0.05 µg/mL; MIC (P. aeruginosa A9930; A9930, Run 1): 0.4 µg/mL (≈ 0.856 µM); MIC (P. aeruginosa A9930; A9930, Run 2): 0.8 µg/mL (≈ 1.71 µM); MIC (S. aureus A20239 NPT-1,2): 1.6 µg/mL (≈ 3.42 µM); MIC ([4]; Run 2): 3.1 µg/mL (≈ 6.63 µM); MIC [4, 10]: 3.1 µg/mL (≈ 6.63 µM); MIC (P. stuartii A20894 GAT-2; Providencia stuartii, A20894GAT2): 12.5 µg/mL (≈ 26.7 µM); MIC (P. stuartii A20894 GAT-2; Run 2, Ps-2): 12.5 µg/mL (≈ 26.7 µM); MIC (E. coli A20107 NPT-2; A20107NPT2, Run 1): 1.6 µg/mL (≈ 3.42 µM); MIC (E. coli A20107 NPT-2; A20107NPT2, Run 2): 1.6 µg/mL (≈ 3.42 µM); MIC (E. cloacae A21006 NPT-2; Enterobacter cloacae, A21006NPT2): 1.6 µg/mL (≈ 3.42 µM); MIC (E. cloacae A21006 NPT-2; Run 2, E1-12): 1.6 µg/mL (≈ 3.42 µM); MIC ([5]; Escherichia coli): 25 µg/mL (≈ 53.5 µM); MIC ([5]; Run 2, Ec-53): 25 µg/mL (≈ 53.5 µM); MIC (P. vulgaris A9436; Proteus vulgaris, A9436, Run 1, read-out: MIC): 0.4 µg/mL (≈ 0.856 µM); MIC (P. vulgaris A9436; Run 2): 0.4 µg/mL (≈ 0.856 µM); MIC (P. aeruginosa GN-315 KAT; Pseudomonas aeruginosa, GN315, Run 1, read-out: MIC): > 100 µg/mL; MIC (P. aeruginosa GN-315 KAT; Run 2): > 100 µg/mL; MIC (E. coli NR79/W677 KAT; Run 1): 1.6 µg/mL (≈ 3.42 µM); MIC (E. coli NR79/W677 KAT; Run 2): 0.8 µg/mL (≈ 1.71 µM); MIC (S. aureus Smith; Run 1): 0.4 µg/mL (≈ 0.856 µM); MIC (S. aureus Smith; Run 2): 0.2 µg/mL (≈ 0.428 µM); MIC ([6]; A20601GAT1, Run 1): 3.1 µg/mL (≈ 6.63 µM); MIC ([6]; A20601GAT1, Run 2): 1.6 µg/mL (≈ 3.42 µM); MIC (E. coli JR88 CAT-1; Escherichia coli, JR88CAT1): 1.6 µg/mL (≈ 3.42 µM); MIC (E. coli JR88 CAT-1; Run 2, Ec-62): 1.6 µg/mL (≈ 3.42 µM); MIC (E. coli NIHJ; Escherichia coli, Run 1, read-out: MIC): 0.8 µg/mL (≈ 1.71 µM); MIC (E. coli NIHJ; Run 2): 0.8 µg/mL (≈ 1.71 µM); MIC (E. coli A20732 GAS; Run 1): 50 µg/mL (≈ 107 µM); MIC (E. coli A20732 GAS; Run 2): 1.6 µg/mL (≈ 3.42 µM); MIC ([7]; Klebsiella pneumoniae, Run 1, read-out: MIC): 25 µg/mL (≈ 53.5 µM); MIC ([7]; Run 2): 25 µg/mL (≈ 53.5 µM); MIC (E. coli ML1630 NPT-1; ML1630NPT1, Run 1): 1.6 µg/mL (≈ 3.42 µM); MIC (E. coli ML1630 NPT-1; ML1630NPT1, Run 2): 0.8 µg/mL (≈ 1.71 µM); MIC ([8]; Run 1): 6.3 µg/mL (≈ 13.5 µM); MIC ([8]; Run 2): 3.1 µg/mL (≈ 6.63 µM); MIC (E. coli JR35/C600 NPT-1; Escherichia coli, JR35/C600NPT1): 1.6 µg/mL (≈ 3.42 µM); MIC (E. coli JR35/C600 NPT-1; Run 2, Ec-10): 1.6 µg/mL (≈ 3.42 µM); MIC ([9]; Pseudomonas, Run 1, read-out: MIC): 25 µg/mL (≈ 53.5 µM); MIC ([9]; Run 2): 25 µg/mL (≈ 53.5 µM); MIC (E. coli P01495 CP.TC-R; Run 1): 1.6 µg/mL (≈ 3.42 µM); MIC (E. coli P01495 CP.TC-R; Run 2): 0.8 µg/mL (≈ 1.71 µM); MIC (S. aureus D133 SH, Sth-R; Run 2): 1.6 µg/mL (≈ 3.42 µM); MIC (S. aureus D133 SH, Sth-R; [10]): 1.6 µg/mL (≈ 3.42 µM); MIC (E. coli R5 KAT; Escherichia coli, R5KAT): 0.8 µg/mL (≈ 1.71 µM); MIC (E. coli R5 KAT; Run 2, Ec-55): 0.8 µg/mL (≈ 1.71 µM); MIC (E. cloacae A20364 NPT-1; A20364NPT1, Run 1): 50 µg/mL (≈ 107 µM); MIC (E. cloacae A20364 NPT-1; A20364NPT1, Run 2): 1.6 µg/mL (≈ 3.42 µM)
